Entries after “also recorded” stand apart in the source; their conditions may differ.
Key:
[1] = test system: UM-SCC-74B spheroids; experiment: 3D tumor spheroid growth, UM-SCC-74B; type: cell-based, human; settings: for Maximum time to termination / Median time to termination: volume >600 μm^3; for CDI: CDI = AB/(A*B)
Experimental: (§1) Cells were irradiated using ^137Cs gamma-ray photons at a dose-rate of ~1 Gy/min (Best Theratronics Gammacell® 40Exactor, Springfield, USA).
For liquid overlay 3D spheroid formation, 96-well plates were coated with 0.15% agarose dissolved in PBS with 1% penicillin/streptomycin. 1000 UM-SCC-74B cells/well were seeded and incubated at 37°C for 3 days prior to treatment. […] Half of the medium was replaced every 48 h for the first 10 days, thereafter every 4 days. […] Images were obtained every 2–4 days using a Canon EOS 700D camera mounted on an inverted Nikon Diaphot-TMD microscope. […] Each spheroid was normalized to its own starting volume at the start of treatment (Day 0, growth ratio = 1). Spheroids exceeding a volume of 600 μm^3 were excluded (i.e., terminated) from further analyses as 600 μm^3 is the maximum size possible to obtain in these settings with uncompromised growth conditions.
GraphPad Prism version 6.07 (GraphPad Software, San Diego, USA) was used for data processing and analysis. p-values were determined using unpaired student's t-test for comparison between two groups or one-way ANOVA followed by Tukey's multiple comparisons test, with p < 0.05 (^*), p < 0.01 (^**), p < 0.001 (^***), and p < 0.0001 (^****). For XTT assays cell viability was normalized for irradiated and unirradiated samples separately. […] CDI ≤ 0.7 equaled significant synergistic effect, CDI ≤ 1 equaled additive effect and CDI > 1 equaled antagonistic effect ([29]).

[2] = test system: p53; experiment: Western Blot p53 expression, HCT116; type: cell-based; settings: n ≥ 3
Experimental: as §1
(§2) Whole-cell lysates were prepared according to standard protocols. Protein concentrations were measured using a DeNovix DS-11 spectrophotometer (DeNovix Inc., Wilmington, DE, USA). Samples were separated on 4–12% Bis-Tris SDS gels and transferred to a nitrocellulose membrane (ThermoFisher Scientific, Uppsala, Sweden) by wet-transfer blotting. The membrane was blocked for 1 h in PBS with 5% BSA before incubation with primary antibodies targeting p53, caspase-3, NaK-ATPase and GLB1 (DO-1 (ab1101), ab13847, ab76020 and ab128993, AbCam, Cambridge, UK) and β-actin (A5441, Sigma Aldrich Sweden, Stockholm, Sweden) at 4°C overnight. After washing with PBS with 1% Tween-20, the membrane was incubated with respective and species-specific Horse Radish Peroxidase-labeled secondary antibody (ThermoFisher Scientific, Waltham, MA, USA) and stained with electro-chemiluminescent solution (Immobilon, Millipore, Bedford, USA).

[3] = test system: HCT116; experiment: Cell cycle analysis by flow cytometry, HCT116; type: cell-based; settings: for G2/M-phase / S-phase: viable cells, DAPI
Experimental: as §1
(§3) Cells were collected and fixed in 70% ethanol at 6, 12, 24, 48, 72, and 96 h post-irradiation and stored at −20°C. For cell cycle analyses, 6, 12, 24, and 48 h samples were rehydrated and washed twice with PBS and stained with DAPI (Sigma Aldrich Sweden, Stockholm, Sweden) using 1 μg/ml for 30 min. 24, 48, 72, and 96 h samples were stained with caspase-3 and Noxa (ab13847 (1:500) and ab13654 (1:1,000), AbCam, Cambridge, UK) overnight at 4°C, followed by incubation with fluorescent labeled secondary antibodies for 90 min (ab 1:400) at room temperature. Analyses were performed using a BD LSR Fortessa flow cytometer (Becton Dickinson Biosciences, San Jose, USA). Data analyses for cleaved caspase-3 and Noxa were performed with BD FACSDiVa (Becton Dickinson Biosciences, San Jose, USA), while cell cycle analyses of exclusively viable cells were performed using FlowJo (Becton, Dickinson Biosciences, San Jose, USA). Coefficient of variation (CV) values, were below seven for all samples.

[4] = test system: p53; experiment: Western Blot p53 expression, UM-SCC-74B; type: cell-based, human; settings: n ≥ 3
Experimental: as §1, §2

[5] = test system: Noxa; experiment: Flow cytometry Noxa expression, HCT116; type: cell-based
Experimental: as §1, §3

[6] = Combination 2 Gy + 20 μM PM2, 6 h
[7] = Combination 2 Gy + 20 μM PM2, 12 h
[8] = Combination 2 Gy + 20 μM PM2, 24 h
[9] = Combination 2 Gy + 20 μM PM2, 48 h

SMILES: CC(=O)N[C@H](C(=O)N[C@@H](CO)C(=O)N[C@@H](Cc1ccccc1)C(=O)N[C@]1(C)CCCCCCC=CCCC[C@@](C)(C(N)=O)NC(=O)[C@H](CC(C)C)NC(=O)[C@H](CC(C)C)NC(=O)[C@H](C)NC(=O)[C@H](Cc2c[nH]c3ccccc23)NC(=O)[C@H](Cc2ccc(O)cc2)NC(=O)[C@H](CCC(=O)O)NC1=O)[C@@H](C)O [PM2]
- Maximum time to termination ([1]; 2 × 2 Gy and 3 × PM2): 25 days
- Median time to termination ([1]; 2 × 2 Gy and 3 × PM2): 21 days
- spheroid response ([1]; 2 × 2 Gy/3 × 20 μM PM2, day 14): continuous growth inhibition throughout day 14
- spheroid size of untreated controls ([1]; 3 × 2 Gy + single dose of PM2, day 14): 75%
- increase of median time to termination compared to untreated controls ([1]; 3 × 2 Gy and 3 × PM2): 2 fold
- Maximum time to termination ([1]; 3 × 2 Gy and 3 × PM2): 35 days
- Median time to termination ([1]; 3 × 2 Gy and 3 × PM2): 28 days
- spheroid response ([1]; 3 × 2 Gy/3 × 20 μM PM2, day 14): continuous growth inhibition throughout day 14
- spheroid size of treated spheroids as % of untreated controls ([1]; 5 × 20 μM PM2 at 48 h intervals, day 14, no radiation): 57%
- spheroid size of untreated controls ([1]; 5 × 2 Gy + single dose of PM2, day 14): 55%
- Maximum time to termination ([1]; 5 × 2 Gy and 1 × PM2): 25 days
- Median time to termination ([1]; 5 × 2 Gy and 1 × PM2): 21 days
- Maximum time to termination ([1]; 5 × 2 Gy and 5 × PM2): Not reached
- Median time to termination ([1]; 5 × 2 Gy and 5 × PM2): Not reached
- spheroid response ([1]; 5 × 2 Gy/5 × 20 μM PM2): spheroid disintegration and cell death
- Maximum time to termination ([1]; 5 × PM2, no radiation): 21 days
- Median time to termination ([1]; 5 × PM2, no radiation): 21 days
- CDI ([1]; Day 10, 1 × 20 μM PM2 + 1 × 2 Gy): 0.705
- CDI ([1]; Day 10, 1 × 20 μM PM2 + 2 × 2 Gy): 0.507
- CDI ([1]; Day 10, 1 × 20 μM PM2 + 3 × 2 Gy): 0.493
- CDI ([1]; Day 10, 1 × 20 μM PM2 + 5 × 2 Gy): 0.472
- CDI ([1]; Day 10, 2 × 20 μM PM2 + 2 × 2 Gy): 0.209
- CDI ([1]; Day 10, 3 × 20 μM PM2 + 1 × 2 Gy): 0.412
- CDI ([1]; Day 10, 3 × 20 μM PM2 + 2 × 2 Gy): 0.122
- CDI ([1]; Day 10, 3 × 20 μM PM2 + 3 × 2 Gy): 0.244
- CDI ([1]; Day 10, 5 × 20 μM PM2 + 1 × 2 Gy): 0.398
- CDI ([1]; Day 10, 5 × 20 μM PM2 + 5 × 2 Gy): 0.201
- CDI ([1]; Day 14, 1 × 20 μM PM2 + 1 × 2 Gy): 1.03
- CDI ([1]; Day 14, 1 × 20 μM PM2 + 2 × 2 Gy): 0.93
- CDI ([1]; Day 14, 1 × 20 μM PM2 + 3 × 2 Gy): 0.821
- CDI ([1]; Day 14, 1 × 20 μM PM2 + 5 × 2 Gy): 0.815
- CDI ([1]; Day 14, 2 × 20 μM PM2 + 2 × 2 Gy): 0.51
- CDI ([1]; Day 14, 3 × 20 μM PM2 + 1 × 2 Gy): 0.944
- CDI ([1]; Day 14, 3 × 20 μM PM2 + 2 × 2 Gy): 0.333
- CDI ([1]; Day 14, 3 × 20 μM PM2 + 3 × 2 Gy): 0.182
- CDI ([1]; Day 14, 5 × 20 μM PM2 + 1 × 2 Gy): 0.568
- CDI ([1]; Day 14, 5 × 20 μM PM2 + 5 × 2 Gy): 0.023
- effect on proliferation rate of spheroids ([1]; all combination treatments of PM2 and EBRT, prior to day 14): synergistic inhibitory effects
- spheroid response (abstract) ([1]; combination of PM2 and EBRT): growth inhibition and complete spheroid disintegration
- spheroid disintegration ([1]; five repeated doses of both PM2 (20 μM) and 2 Gy): 100%
- spheroid growth inhibition ([1]; repeated PM2 doses at 48 h intervals, no radiation): did inhibit growth in a dose-dependent manner
- spheroid growth inhibition ([1]; single 20 μM PM2, 48 h incubation, no radiation): failed to impair UM-SCC-74B spheroid growth
- spheroid growth inhibition ([1]; single dose of PM2 with EBRT): greater inhibitory effects than either treatment alone
- spheroid growth inhibition ([1]; two repeated doses of each of PM2 and EBRT (data not shown)): growth inhibition surpassing the standard 14-day assay
- p53 expression ([2]; 20 μM PM2, 24 h): increased expression of p53
- p53 expression, combination versus PM2 alone ([2]; 2 Gy + 20 μM PM2, 24 h): significant increase; also recorded: further increased wt p53 levels
- G2/M-phase ([3]; 20 μM PM2 alone, 6 h): 19.4%
- S-phase ([3]; 20 μM PM2 alone, 6 h): 55.8%
- G2/M-phase ([3]; 20 μM PM2 alone, 12 h): 30.1%
- S-phase ([3]; 20 μM PM2 alone, 12 h): 35.1%
- G2/M-phase ([3]; 20 μM PM2 alone, 24 h): 21.1%
- S-phase ([3]; 20 μM PM2 alone, 24 h): 10.7%
- G2/M-phase ([3]; 20 μM PM2 alone, 48 h): 20.6%
- S-phase ([3]; 20 μM PM2 alone, 48 h): 23%
- S-phase reduction / depletion ([3]; 2 Gy + 20 μM PM2): S-phase reduction occurred as early as 12 h post-treatment; also recorded: S-phase depletion at 24 h post-treatment
- G2/M-phase cells versus untreated controls ([3]; 2 Gy + 20 μM PM2, throughout 48 h): More than twice as many cells
- G2/M-phase [3, 6]: 39.9%
- S-phase [3, 6]: 44.9%
- G2/M-phase [3, 7]: 53.8%
- S-phase [3, 7]: 17.3%
- G2/M-phase [3, 8]: 42.7%
- S-phase [3, 8]: 5.51%
- G2/M-phase [3, 9]: 29.9%
- S-phase [3, 9]: 17.5%
- p53 expression ([4]; 20 μM PM2, 24 h): increased expression of p53
- p53 expression, combination versus PM2 alone ([4]; 2 Gy + 20 μM PM2, 24 h): significant increase; also recorded: further increased wt p53 levels
- increase in wt p53 levels following combination therapy ([4]; 2 Gy + 20 μM PM2, 24 h, normalized to controls): ~5 fold
- Noxa expression ([5]; 20 μM PM2, 72 h): distinct increases
- Noxa increase, combination compared to PM2 therapy alone ([5]; 2 Gy + 20 μM PM2, p ≤ 0.01, n ≥ 3): 4 fold
